According to US10035790B2, “RORγ modulators” (BRISTOL-MYERS SQUIBB COMPANY, priority 2012, dated 2018):

These molecules were tested against T1, ligand binding domain of human RORγ (A262-S507) (Homo sapiens, UniProt P51449) (assay: General RORγ SPA binding assay (competition with [3H]25-hydroxycholesterol)). Settings: IC50, RORγ SPA binding assay, inhibition of [3H]25-hydroxycholesterol binding.
T1 construct: made in house; host or cells: E. coli
T1 sequence (P51449 262-507): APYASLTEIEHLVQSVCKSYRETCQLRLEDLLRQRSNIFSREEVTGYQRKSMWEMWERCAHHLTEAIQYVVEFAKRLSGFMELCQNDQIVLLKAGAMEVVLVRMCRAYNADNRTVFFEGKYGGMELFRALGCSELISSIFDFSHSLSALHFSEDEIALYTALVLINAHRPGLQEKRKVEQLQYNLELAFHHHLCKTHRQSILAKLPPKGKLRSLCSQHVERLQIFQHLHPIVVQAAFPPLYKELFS
Method in brief: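 Step one: compound meets 50 nM nickel-purified, His-tagged protein from E. coli for 15 min at room temperature (PBS, 0.5% fatty acid free BSA). Step two: radioligand is added for another 15 min. Step three: SPA beads are added for 30 min before scintillation reading and IC50 fitting.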

Row | Structure (SMILES) | IC50
1 | Cc1nc(N)nc(C2CCN(C(=O)Oc3ccccc3F)CC2)c1C(=O)NCc1ccnc(C(F)(F)F)n1 [Compound A126, 2-Fluorophenyl 4-{2-amino-6-methyl-5-[({[2-(trifluoromethyl)pyrimidin-4-yl]methyl}amino)carbonyl]pyrimidin-4-yl}piperidine-1-carboxylate] | 0.0152 µM
2 | Nc1ncc(C(=O)COc2cccc(C(F)(F)F)n2)c(C2CCN(C(=O)Oc3ccccc3F)CC2)n1 [Compound M14, 2-Fluorophenyl 4-[2-amino-5-({[6-(trifluoromethyl)pyridin-2-yl]oxy}acetyl)pyrimidin-4-yl]piperidine-1-carboxylate] | 0.485 µM

Same assay, conditions: RORγ SPA binding assay, inhibition of [3H]25-hydroxycholesterol binding; read-out: IC50

Row | Structure (SMILES) | IC50
3 | Cc1nc(C)c(-c2nnc(-c3ccnc(C(F)(F)F)n3)o2)c(C2CCN(C(=O)c3c(F)cccc3Cl)CC2)n1 [Compound C27, (2-chloro-6-fluorophenyl)(4-(2,6-dimethyl-5-(5-(2-(trifluoromethyl)pyrimidin-4-yl)-1,3,4-oxadiazol-2-yl)pyrimidin-4-yl)piperidin-1-yl)methanone] | 0.461 µM
4 | CC(O)(COc1ccnc(C(F)(F)F)n1)c1cnc(OCCF)nc1C1CCN(C(=O)Nc2c(F)cccc2F)CC1 (stereo not shown) [Compound D43, N-(2,6-Difluorophenyl)-4-{2-[(2-fluoroethyl)oxy]-5-(1-hydroxy-1-methyl-2-{[2-(trifluoromethyl)pyrimidin-4-yl]oxy}ethyl)pyrimidin-4-yl}piperidine-1-carboxamide] | 0.022 µM
5 | Cc1ncc(C(=O)NCc2cc(Cl)ccc2F)c(C2CCN(C(=O)Cc3c(F)cccc3F)CC2)n1 [Compound A42, N-(5-chloro-2-fluorobenzyl)-4-(1-(2-(2,6-difluorophenyl)acetyl)piperidin-4-yl)-2-methylpyrimidine-5-carboxamide] | 0.0051 µM
6 | Cc1cc(C)cc(CNC(=O)c2cnc(C)nc2C2CCN(C(=O)Cc3ccccc3[N+](=O)[O-])CC2)c1 [Compound A15, N-(3,5-dimethylbenzyl)-2-methyl-4-(1-(2-(2-nitrophenyl)acetyl)piperidin-4-yl)pyrimidine-5-carboxamide] | 0.07 µM
7 | Cc1ncc(C(C)(O)CN(C)c2ccnc(C(F)(F)F)n2)c(C2CCN(C(=O)Cc3c(F)cccc3F)CC2)n1 (stereo not shown) [Compound D20, 2-(4-{1-[(2,6-Difluorophenyl)acetyl]piperidin-4-yl}-2-methylpyrimidin-5-yl)-1-{methyl[2-(trifluoromethyl)pyrimidin-4-yl]amino}propan-2-ol] | 0.0728 µM
8 | Cc1ncc(C(=O)NC(CO)c2cccc(Cl)c2)c(C2CCN(C(=O)Cc3c(F)cccc3F)CC2)n1 (stereo not shown) [Compound A110, N-(1-(3-Chlorophenyl)-2-hydroxyethyl)-4-(1-(2-(2,6-difluorophenyl)acetyl)piperidin-4-yl)-2-methylpyrimidine-5-carboxamide] | 1.44 µM
9 | COc1ccccc1OC(=O)N1CCC(c2nc(N)nc(C)c2-c2nnc(-c3ccnc(C(F)(F)F)n3)o2)CC1 [Compound C57, 2-(methyloxy)phenyl 4-(2-amino-6-methyl-5-{5-[2-(trifluoromethyl)pyrimidin-4-yl]-1,3,4-oxadiazol-2-yl}pyrimidin-4-yl)piperidine-1-carboxylate] | 0.0236 µM
10 | Cc1ncc(C(C)(O)CNc2ccnc(Cl)c2)c(C2CCN(C(=O)Cc3c(F)cccc3F)CC2)n1 (stereo not shown) [Compound D7, 1-(4-(5-(1-((2-chloropyridin-4-yl)amino)-2-hydroxypropan-2-yl)-2-methylpyrimidin-4-yl)piperidin-1-yl)-2-(2,6-difluorophenyl)ethanone] | 0.08 µM
11 | Cc1cc(C)cc(CNC(=O)c2cnc(C)nc2C2CCN(CCc3c(F)cccc3F)CC2)c1 [Compound A99, 4-(1-(2,6-difluorophenethyl)piperidin-4-yl)-N-(3,5-dimethylbenzyl)-2-methylpyrimidine-5-carboxamide] | 0.058 µM
12 | Cc1cc(C)cc(CNC(=O)c2cnc(C)nc2C2CCN(C(=O)C(F)(F)c3c(F)cccc3F)CC2)c1 [Compound A116, 4-{1-[(2,6-Difluorophenyl)(difluoro)acetyl]piperidin-4-yl}-N-[(3,5-dimethylphenyl)methyl]-2-methylpyrimidine-5-carboxamide] | 0.0371 µM
13 | CC(O)(COc1ccnc(C(F)(F)F)n1)c1cnc(NC2CC2)nc1C1CCN(C(=O)Nc2c(F)cccc2F)CC1 (stereo not shown) [Compound D34, 4-[2-(Cyclopropylamino)-5-(1-hydroxy-1-methyl-2-{[2-(trifluoromethyl)pyrimidin-4-yl]oxy}ethyl)pyrimidin-4-yl]-N-(2,6-difluorophenyl)piperidine-1-carboxamide] | 0.015 µM
14 | Cc1ncc(C(C)(O)CN(C)c2ccnc(C(F)(F)F)n2)c(C2CCN(C(=O)Nc3c(F)cccc3F)CC2)n1 (stereo not shown) [Compound D19, N-(2,6-Difluorophenyl)-4-[5-(1-hydroxy-1-methyl-2-{methyl[2-(trifluoromethyl)pyrimidin-4-yl]amino}ethyl)-2-methylpyrimidin-4-yl]piperidine-1-carboxamide] | 0.196 µM
15 | Cc1nc(C)c(-c2nnc(-c3ccnc(C(F)(F)F)n3)o2)c(C2CCN(C(=S)Nc3ccccc3C(F)(F)F)CC2)n1 [Compound C47, 4-(2,6-Dimethyl-5-{5-[2-(trifluoromethyl)pyrimidin-4-yl]-1,3,4-oxadiazol-2-yl}pyrimidin-4-yl)-N-[2-(trifluoromethyl)phenyl]piperidine-1-carbothioamide] | 0.0806 µM
16 | Cc1cc(C)cc(CNC(=O)c2cnc(C)nc2C2CCN(C(=O)C3(c4ccccc4F)CCCC3)CC2)c1 [Compound A31] | 1.63 µM
17 | Cc1ccnc(NCC(C)(O)c2cnc(C)nc2C2CCN(C(=O)Cc3c(F)cccc3F)CC2)c1 (stereo not shown) [Compound D9, 2-(2,6-difluorophenyl)-1-(4-(5-(2-hydroxy-1-((4-methylpyridin-2-yl)amino)propan-2-yl)-2-methylpyrimidin-4-yl)piperidin-1-yl)ethanone] | 0.118 µM
18 | Cc1ncc(C(=O)NCc2cccc(Cl)c2)c(C2CCN(C(=O)Cc3c(F)cccc3F)CC2)n1 [Compound A40, N-(3-chlorobenzyl)-4-(1-(2-(2,6-difluorophenyl)acetyl)piperidin-4-yl)-2-methylpyrimidine-5-carboxamide] | 0.0058 µM
19 | CC(C)c1ncc(C(=O)NCc2ccc(Cl)c(Cl)c2)c(C2CCN(C(=O)Cc3c(F)cccc3F)CC2)n1 [Compound A28, N-(3,4-dichlorobenzyl)-4-(1-(2-(2,6-difluorophenyl)acetyl)piperidin-4-yl)-2-isopropylpyrimidine-5-carboxamide] | 1.03 µM
20 | O=C(NCc1cccc(Cl)c1)c1cnc(NCCO)nc1C1CCN(C(=O)Cc2c(F)cccc2F)CC1 [Compound A87, N-(3-chlorobenzyl)-4-(1-(2-(2,6-difluorophenyl)acetyl)piperidin-4-yl)-2-((2-hydroxyethyl)amino)pyrimidine-5-carboxamide] | 0.0017 µM
21 | CCc1ncc(C(=O)NCc2cccc(Cl)c2)c(C2CCN(C(=O)Cc3c(F)cccc3F)CC2)n1 [Compound A48, N-(3-chlorobenzyl)-4-(1-(2-(2,6-difluorophenyl)acetyl)piperidin-4-yl)-2-ethylpyrimidine-5-carboxamide] | 0.0067 µM

More lines, now with the values ahead:

Row | IC50 | Structure (SMILES)
22 | 0.0081 µM | CCc1ncc(C(=O)NNc2cccc(Cl)c2)c(C2CCN(C(=O)Cc3c(F)cccc3F)CC2)n1 [Compound G3, N′-(3-chlorophenyl)-4-(1-(2-(2,6-difluorophenyl)acetyl)piperidin-4-yl)-2-ethylpyrimidine-5-carbohydrazide]
23 | 0.0033 µM | Cc1ncc(C(C)(C)CNc2cccc(C(F)(F)F)n2)c(C2CCN(C(=O)Cc3c(F)cccc3F)CC2)n1 [Compound F3, N-[2-(4-{1-[(2,6-difluorophenyl)acetyl]piperidin-4-yl}-2-methylpyrimidin-5-yl)-2-methylpropyl]-6-(trifluoromethyl)pyridin-2-amine]
24 | 0.0121 µM | Cc1nc(C)c(C(=O)NNc2cccc(Cl)c2)c(C2CCN(C(=O)Cc3c(F)cccc3F)CC2)n1 [Compound G4, N′-(3-chlorophenyl)-4-(1-(2-(2,6-difluorophenyl)acetyl)piperidin-4-yl)-2,6-dimethylpyrimidine-5-carbohydrazide]
25 | 0.0096 µM | Cc1ncc(C(=O)NNc2cccc(Cl)c2)c(C2CCN(C(=O)Cc3c(F)cccc3F)CC2)n1 [Compound G1, N-(3-Chlorophenyl)-4-(1-(2-(2,6-difluorophenyl)acetyl)piperidin-4-yl)-2-methylpyrimidine-5-carbohydrazide]
26 | 0.071 µM | CC(=O)N1CCC(NC(COc2cccc(C(F)(F)F)n2)c2cnc(C)nc2C2CCN(C(=O)Nc3c(F)cccc3F)CC2)CC1 (stereo not shown) [Compound N28, 4-[5-(1-[(1-Acetylpiperidin-4-yl)amino]-2-{[6-(trifluoromethyl)pyridin-2-yl]oxy}ethyl)-2-methylpyrimidin-4-yl]-N-(2,6-difluorophenyl)piperidine-1-carboxamide]
27 | 0.0063 µM | COCC(C)(OCc1cc(C)cc(C)c1)c1cnc(C)nc1C1CCN(C(=O)Cc2c(F)cccc2F)CC1 (stereo not shown) [Compound E1, 2-(2,6-Difluorophenyl)-1-(4-(5-(2-(3,5-dimethylbenzyloxy)-1-methoxypropan-2-yl)-2-methylpyrimidin-4-yl)piperidin-1-yl)ethanone]
28 | 0.0041 µM | Cc1cc(C)cc(COC(C)(COC[C@H](O)CO)c2cnc(C)nc2C2CCN(C(=O)Cc3c(F)cccc3F)CC2)c1 (stereo in doubt) [Compound E8, 2-(2,6-Difluorophenyl)-1-(4-(5-(1-(2,3-dihydroxypropoxy)-2-(3,5-dimethylbenzyloxy)propan-2-yl)-2-methylpyrimidin-4-yl)piperidin-1-yl)ethanone]
